Common to all, as to assay type: in vivo
Experiment [1] deals with Botrytis cinerea. The experiment in a line: Test A: preventive spray on tomato seedlings, tomato Botrytis, visual disease rating. The settings on record: 200 ppm test suspension. The protocol:
General protocol for preparing test suspensions for Tests A-I: the test compounds were first dissolved in acetone in an amount equal to 3% of the final volume and then suspended at the desired concentration (in ppm) in acetone and purified water (50/50 mix by volume) containing 250 ppm of the surfactant Trem® 014 (polyhydric alcohol esters). The resulting test suspensions were then used in Tests A-I. Each test was conducted in triplicate, and the results were averaged. Spraying a 200 ppm test suspension to the point of run-off on the test plants was the equivalent of a rate of about 800 g/ha. Unless otherwise indicated, the rating values indicate a 200 ppm test suspension was used. (An asterisk “*” next to the rating value indicates a 40 ppm test suspension was used.) The test suspension was sprayed to the point of run-off on tomato seedlings. The following day the seedlings were inoculated with a spore suspension of Botrytis cinerea (the causal agent of tomato Botrytis) and incubated in saturated atmosphere at 20° C. for 48 h, and then moved to a growth chamber at 24° C. for 3 additional days, after which time visual disease ratings were made. Results for Tests A-I are given in Table A. In the Table, a rating of 100 indicates 100% disease control and a rating of 0 indicates no disease control (relative to the controls). A hyphen (-) indicates no test results.

For experiment [2], the system named is Septoria nodorum. Put plainly: Test E: preventive spray on wheat seedlings, Septoria glume blotch, visual disease rating. As to conditions: 200 ppm test suspension, preventive spray. The protocol: General protocol for preparing test suspensions for Tests A-I: the test compounds were first dissolved in acetone in an amount equal to 3% of the final volume and then suspended at the desired concentration (in ppm) in acetone and purified water (50/50 mix by volume) containing 250 ppm of the surfactant Trem® 014 (polyhydric alcohol esters). The resulting test suspensions were then used in Tests A-I. Each test was conducted in triplicate, and the results were averaged. Spraying a 200 ppm test suspension to the point of run-off on the test plants was the equivalent of a rate of about 800 g/ha. Unless otherwise indicated, the rating values indicate a 200 ppm test suspension was used. (An asterisk “*” next to the rating value indicates a 40 ppm test suspension was used.) The test suspension was sprayed to the point of run-off on wheat seedlings. The following day the seedlings were inoculated with a spore suspension of Septoria nodorum (the causal agent of Septoria glume blotch) and incubated in a saturated atmosphere at 24° C. for 48 h, and then moved to a growth chamber at 20° C. for 9 days, after which time visual disease ratings were made. Results for Tests A-I are given in Table A. In the Table, a rating of 100 indicates 100% disease control and a rating of 0 indicates no disease control (relative to the controls). A hyphen (-) indicates no test results.

For experiment [3], the system named is Septoria tritici. Put plainly: Test F: preventive spray on wheat seedlings, wheat leaf blotch, visual disease rating. The settings on record: Zymoseptoria tritici, 200 ppm test suspension. The protocol: General protocol for preparing test suspensions for Tests A-I: the test compounds were first dissolved in acetone in an amount equal to 3% of the final volume and then suspended at the desired concentration (in ppm) in acetone and purified water (50/50 mix by volume) containing 250 ppm of the surfactant Trem® 014 (polyhydric alcohol esters). The resulting test suspensions were then used in Tests A-I. Each test was conducted in triplicate, and the results were averaged. Spraying a 200 ppm test suspension to the point of run-off on the test plants was the equivalent of a rate of about 800 g/ha. Unless otherwise indicated, the rating values indicate a 200 ppm test suspension was used. (An asterisk “*” next to the rating value indicates a 40 ppm test suspension was used.) The test suspension was sprayed to the point of run-off on wheat seedlings. The following day the seedlings were inoculated with a spore suspension of Septoria tritici (the causal agent of wheat leaf blotch) and incubated in saturated atmosphere at 24° C. for 48 h. and then the seedlings were moved to a growth chamber at 20° C. for 19 additional days, after which time visual disease ratings were made. Results for Tests A-I are given in Table A. In the Table, a rating of 100 indicates 100% disease control and a rating of 0 indicates no disease control (relative to the controls). A hyphen (-) indicates no test results.

The subject of experiment [4] is Puccinia recondita f. sp. tritici. The experiment in a line: Test H: preventive spray on wheat seedlings, wheat leaf rust, visual disease rating. The settings on record: 200 ppm test suspension. How it is done: General protocol for preparing test suspensions for Tests A-I: the test compounds were first dissolved in acetone in an amount equal to 3% of the final volume and then suspended at the desired concentration (in ppm) in acetone and purified water (50/50 mix by volume) containing 250 ppm of the surfactant Trem® 014 (polyhydric alcohol esters). The resulting test suspensions were then used in Tests A-I. Each test was conducted in triplicate, and the results were averaged. Spraying a 200 ppm test suspension to the point of run-off on the test plants was the equivalent of a rate of about 800 g/ha. Unless otherwise indicated, the rating values indicate a 200 ppm test suspension was used. (An asterisk “*” next to the rating value indicates a 40 ppm test suspension was used.) The test suspension was sprayed to the point of run-off on wheat seedlings. The following day the seedlings were inoculated with a spore suspension of Puccinia recondita f. sp. tritici (the causal agent of wheat leaf rust) and incubated in a saturated atmosphere at 20° C. for 24 h, and then moved to a growth chamber at 20° C. for 6 days, after which time visual disease ratings were made. Results for Tests A-I are given in Table A. In the Table, a rating of 100 indicates 100% disease control and a rating of 0 indicates no disease control (relative to the controls). A hyphen (-) indicates no test results.

The subject of experiment [5] is Blumeria graminis f. sp. tritici. The experiment in a line: Test I: preventive spray on wheat seedlings, wheat powdery mildew, visual disease rating. The settings on record: 192 h, 200 ppm test suspension. How it is done:
General protocol for preparing test suspensions for Tests A-I: the test compounds were first dissolved in acetone in an amount equal to 3% of the final volume and then suspended at the desired concentration (in ppm) in acetone and purified water (50/50 mix by volume) containing 250 ppm of the surfactant Trem® 014 (polyhydric alcohol esters). The resulting test suspensions were then used in Tests A-I. Each test was conducted in triplicate, and the results were averaged. Spraying a 200 ppm test suspension to the point of run-off on the test plants was the equivalent of a rate of about 800 g/ha. Unless otherwise indicated, the rating values indicate a 200 ppm test suspension was used. (An asterisk “*” next to the rating value indicates a 40 ppm test suspension was used.) The test suspension was sprayed to the point of run-off on wheat seedlings. The following day the seedlings were inoculated with a spore dust of Blumeria graminis f. sp. tritici (also known as Erysiphe graminis f. sp. tritici, the causal agent of wheat powdery mildew) and incubated in a growth chamber at 20° C. for 8 days, after which time visual disease ratings were made. Results for Tests A-I are given in Table A. In the Table, a rating of 100 indicates 100% disease control and a rating of 0 indicates no disease control (relative to the controls). A hyphen (-) indicates no test results.

Regarding `Cc1nn(C)c(Nc2c(F)cccc2Cl)c1-c1ccc(F)cc1Cl` [Compound 3, 4-(2-chloro-4-fluorophenyl)-N-(2-chloro-6-fluorophenyl)-1,3-dimethyl-1H-pyrazol-5-amine], the pest or weed control at 200 ppm in experiment [1] came to 100%; in experiment [3], 100%; in experiment [4], 100%; in experiment [5] it was 99%. For the same molecule, the “Test E rating (% disease control)” value in experiment [2] was determined as 99%.
For `Cc1nn(C)c(Nc2c(F)cccc2F)c1-c1ccc(F)cc1Cl` [Compound 2, 4-(2-chloro-4-fluorophenyl)-N-(2,6-difluorophenyl)-1,3-dimethyl-1H-pyrazol-5-amine], the pest or weed control at 200 ppm in experiment [1] stood at 100%; in experiment [3], 100%; in experiment [4], 99%; in experiment [5], 100%. In experiment [2], the “Test E rating (% disease control)” value worked out at 87%.
Turning to `Cc1nn(C)c(Nc2ccccc2F)c1-c1ccc(F)cc1Cl` [Compound 1, 4-(2-chloro-4-fluorophenyl)-N-(2-fluorophenyl)-1,3-dimethyl-1H-pyrazol-5-amine], the pest or weed control at 200 ppm was determined as 99% in experiment [1], 100% in experiment [3], 99% in experiment [4] and 100% in experiment [5]. The “Test E rating (% disease control)” value in experiment [2] was 0%.

The record behind these values is patent US10015966B2, “Fungicidal pyrazole mixtures” (E I DU PONT DE NEMOURS AND COMPANY, priority 2012, dated 2018).
